# Assay results published in ChEMBL document CHEMBL1926626, “Design and synthesis of benzo[c,d]indolone-pyrrolobenzodiazepine conjugates as potential anticancer agents” (Bioorg Med Chem, 2012).
# Activity calls are given as the source filed them. The calls are words filed in the database; no cut-off is given here.
# How the values were obtained:
# [1] = system: A549; test: Anticancer activity against human A549 cells after 48 hrs by MTT assay; settings: A549, 48 h
# [2] = system: A-431; test: Anticancer activity against human A431 cells after 48 hrs by MTT assay; format: functional, cell-based; settings: A-431, 48 h
# [3] = system: COLO 205; test: Anticancer activity against human COLO205 cells after 48 hrs by MTT assay; format: functional, cell-based; settings: COLO 205, 48 h
# [4] = system: PC-3; test: Anticancer activity against human PC3 cells after 48 hrs by MTT assay; format: functional, cell-based; settings: PC-3, 48 h
# [5] = system: HEK293; test: Cytotoxicity activity against human HEK293 cells after 48 hrs by MTT assay; format: cell-based; settings: hek293, 48 h
# [6] = system: Nucleic Acid; test: Binding affinity to calf thymus DNA assessed as change in melting temperature at compound:DNA molar ratio of 1:5 after 18 hrs at 37 degC by thermal denaturation assay (RVb = 0.3 to 3.1 degC); format: nucleic-acid assay; settings: Bos taurus
# [7] = system: A549; test: Induction of cell cycle arrest in human A549 cells assessed as accumulation at G1 phase at 1 uM after 48 hrs by propidium iodide staining-based flow cytometry (reference value: 76.31 %); format: functional
# [8] = system: A549; test: Induction of cell cycle arrest in human A549 cells assessed as accumulation at S phase at 1 uM after 48 hrs by propidium iodide staining-based flow cytometry (reference value: 13.31 %); format: functional
# [9] = system: A549; test: Induction of cell cycle arrest in human A549 cells assessed as accumulation at G2 phase at 1 uM after 48 hrs by propidium iodide staining-based flow cytometry (reference value: 9.23 %); format: functional
# [10] = system: A549; test: Induction of cell cycle arrest in human A549 cells assessed as accumulation at Sub G1 phase at 1 uM after 48 hrs by propidium iodide staining-based flow cytometry (reference value: 0.67 %); format: functional
# [11] = system: A549; test: Induction of apoptosis in human A549 cells assessed as viable cells at 1 uM after 48 hrs by annexin V-FITC and propidium iodide staining method (RVb = 99.93 %); format: functional; settings: A549, 48 h, read-out: Activity
# [12] = system: A549; test: Induction of apoptosis in human A549 cells assessed as early apoptotic cells at 1 uM after 48 hrs by annexin V-FITC and propidium iodide staining method (RVb = 0.01 %); format: functional
# [13] = system: A549; test: Induction of apoptosis in human A549 cells assessed as late apoptotic cells at 1 uM after 48 hrs by annexin V-FITC and propidium iodide staining method (RVb = 0.02 %); format: functional
# [14] = system: A549; test: Induction of apoptosis in human A549 cells assessed as necrotic cells at 1 uM after 48 hrs by annexin V-FITC and propidium iodide staining method (RVb = 0.04 %); format: functional
# [15] = system: A549; test: Induction of apoptosis in human A549 cells assessed as nuclear condensation at 2 uM after 48 hrs by Hoechst 33258 staining-based fluorescence microscopy relative to control; format: functional, cell-based
# [16] = system: A549; test: Induction of cell cycle arrest in human A549 cells assessed as accumulation at G1 phase at 2 uM after 48 hrs by propidium iodide staining-based flow cytometry (reference value: 76.31 %); format: functional
# [17] = system: A549; test: Induction of cell cycle arrest in human A549 cells assessed as accumulation at S phase at 2 uM after 48 hrs by propidium iodide staining-based flow cytometry (reference value: 13.31 %); format: functional
# [18] = system: A549; test: Induction of cell cycle arrest in human A549 cells assessed as accumulation at G2 phase at 2 uM after 48 hrs by propidium iodide staining-based flow cytometry (reference value: 9.23 %); format: functional
# [19] = system: A549; test: Induction of cell cycle arrest in human A549 cells assessed as accumulation at Sub G1 phase at 2 uM after 48 hrs by propidium iodide staining-based flow cytometry (reference value: 0.67 %); format: functional
# [20] = system: A549; test: Induction of cell cycle arrest in human A549 cells assessed as accumulation at subG1 phase after 48 hrs by propidium iodide staining-based flow cytometry; format: functional
# [21] = system: A549; test: Induction of cell cycle arrest in human A549 cells assessed as decrease in accumulation at G0/G1 phase after 48 hrs by propidium iodide staining-based flow cytometry; format: functional
# [22] = system: A549; test: Induction of apoptosis in human A549 cells assessed as viable cells at 2 uM after 48 hrs by annexin V-FITC and propidium iodide staining method (RVb = 99.93 %); format: functional; settings: A549, 48 h, read-out: Activity
# [23] = system: A549; test: Induction of apoptosis in human A549 cells assessed as early apoptotic cells at 2 uM after 48 hrs by annexin V-FITC and propidium iodide staining method (RVb = 0.01 %); format: functional
# [24] = system: A549; test: Induction of apoptosis in human A549 cells assessed as late apoptotic cells at 2 uM after 48 hrs by annexin V-FITC and propidium iodide staining method (RVb = 0.02 %); format: functional
# [25] = system: A549; test: Induction of apoptosis in human A549 cells assessed as necrotic cells at 2 uM after 48 hrs by annexin V-FITC and propidium iodide staining method (RVb = 0.04 %); format: functional
# [26] = system: A549; test: Induction of apoptosis in human A549 cells assessed as activation of caspase-3 activity at 1 to 2 uM after 48 hrs by ELISA relative to control; format: functional
# [27] = system: A549; test: Induction of apoptosis in human A549 cells assessed as oligoneucleosomal DNA fragmentation at 1 to 2 uM after 48 hrs by agarose gel electrophoresis technique; format: functional, cell-based
smiles,measurement,setting,value
COc1cc2c(cc1OCCCN1c3cccc4cccc(c34)S1(=O)=O)N=C[C@@H]1CCCN1C2=O,IC50,[1],10 µM
same,IC50,[2],9.56 µM
same,IC50,[3],7.66 µM
same,IC50,[4],9.8 µM
same,Activity,[5],Non-toxic
same,ΔTm,[6],4.9 °C
COc1cc2c(cc1OCCCCCN1c3cccc4cccc(c34)S1(=O)=O)N=C[C@@H]1CCCN1C2=O,IC50,[1],14.4 µM
same,IC50,[2],4.67 µM
same,IC50,[3],15.1 µM
same,IC50,[4],9.7 µM
same,Activity,[5],Non-toxic
same,ΔTm,[6],5.6 °C
COc1cc2c(cc1O)N=C[C@@H]1CCCN1C2=O,IC50,[1],1.11 µM
same,IC50,[2],1.65 µM
same,IC50,[3],0.86 µM
same,IC50,[4],1.19 µM
same,ΔTm,[6],0.7 °C
same,Activity,[7],40.78%
same,Activity,[8],38.93%
same,Activity,[9],8.57%
same,Activity,[10],10.15%
same,viability at 1 µM,[11],41.2%
same,Activity,[12],39.1%
same,Activity,[13],17.73%
same,Activity,[14],1.91%
same,Activity,[15],Active
COc1cc2c(cc1OCCCCn1c(=C(C#N)C#N)c3cccc4cccc1c43)N=C[C@@H]1CCCN1C2=O,IC50,[1],25.5 µM
same,IC50,[2],2.5 µM
same,IC50,[3],2.95 µM
same,IC50,[4],14.8 µM
same,Activity,[5],Non-toxic
same,ΔTm,[6],2.7 °C
COc1cc2c(cc1OCCCCCCN1c3cccc4cccc(c34)S1(=O)=O)N=C[C@@H]1CCCN1C2=O,IC50,[1],1.05 µM
same,IC50,[2],1.72 µM
same,IC50,[3],1.21 µM
same,IC50,[4],1.52 µM
same,Activity,[5],Non-toxic
same,ΔTm,[6],7.6 °C
same,Activity,[7],36.77%
same,Activity,[8],15.34%
same,Activity,[9],3.75%
same,Activity,[10],42.83%
same,Activity,[16],20.48%
same,Activity,[17],9.93%
same,Activity,[18],0.37%
same,Activity,[19],66.94%
same,Activity,[20],Dose-dependent effect
same,Activity,[21],Dose-dependent effect
same,viability at 1 µM,[11],40.6%
same,Activity,[12],32.55%
same,Activity,[13],24.94%
same,Activity,[14],1.93%
same,viability at 2 µM,[22],28.8%
same,Activity,[23],26.07%
same,Activity,[24],42.4%
same,Activity,[25],2.77%
same,fold change (FC),[26],4
same,Activity,[27],Active
same,Activity,[15],Active
COc1cc2c(cc1OCCCCN1c3cccc4cccc(c34)S1(=O)=O)N=C[C@@H]1CCCN1C2=O,IC50,[1],19.6 µM
same,IC50,[2],3.34 µM
same,IC50,[3],3.71 µM
same,IC50,[4],14.9 µM
same,Activity,[5],Non-toxic
same,ΔTm,[6],3.9 °C
COc1cccc2c1C(=O)c1c(O)c3c(c(O)c1C2=O)C[C@@](O)(C(=O)CO)C[C@@H]3O[C@H]1C[C@H](N)[C@H](O)[C@H](C)O1 [DOXORUBICIN],IC50,[2],0.03 µM
same,IC50,[3],1.69 µM
same,IC50,[4],2.51 µM
COc1cc2c(cc1OCCCCCCn1c(=C(C#N)C#N)c3cccc4cccc1c43)N=C[C@@H]1CCCN1C2=O,IC50,[1],18.9 µM
same,IC50,[2],1.25 µM
same,IC50,[3],16.7 µM
same,IC50,[4],19.3 µM
same,Activity,[5],Non-toxic
same,ΔTm,[6],2 °C
COc1cc2c(cc1OCCCCCN1C(=O)c3cccc4cccc1c34)N=C[C@@H]1CCCN1C2=O,IC50,[1],21.9 µM
same,IC50,[2],3.71 µM
same,IC50,[3],9.76 µM
same,IC50,[4],15.5 µM
same,Activity,[5],Non-toxic
same,ΔTm,[6],5.2 °C
COc1cc2c(cc1OCCCN1C(=O)c3cccc4cccc1c34)N=C[C@@H]1CCCN1C2=O,IC50,[1],13.8 µM
same,IC50,[2],3.04 µM
same,IC50,[3],8.65 µM
same,IC50,[4],7.67 µM
same,Activity,[5],Non-toxic
same,ΔTm,[6],3.2 °C
COc1cc2c(cc1OCCCn1c(=C(C#N)C#N)c3cccc4cccc1c43)N=C[C@@H]1CCCN1C2=O,IC50,[1],4.86 µM
same,IC50,[2],4.67 µM
same,IC50,[3],6.1 µM
same,IC50,[4],17.9 µM
same,Activity,[5],Non-toxic
same,ΔTm,[6],3.4 °C
COc1cc2c(cc1OCCCCCn1c(=C(C#N)C#N)c3cccc4cccc1c43)N=C[C@@H]1CCCN1C2=O,IC50,[1],5.86 µM
same,IC50,[2],4.46 µM
same,IC50,[3],25.9 µM
same,IC50,[4],36.5 µM
same,Activity,[5],Non-toxic
same,ΔTm,[6],2.8 °C
COc1cc2c(cc1OCCCCN1C(=O)c3cccc4cccc1c34)N=C[C@@H]1CCCN1C2=O,IC50,[1],9.8 µM
same,IC50,[2],1.34 µM
same,IC50,[3],3.31 µM
same,IC50,[4],3.23 µM
same,Activity,[5],Non-toxic
same,ΔTm,[6],4 °C
COc1cc2c(cc1OCCCCCCN1C(=O)c3cccc4cccc1c34)N=C[C@@H]1CCCN1C2=O,IC50,[1],32.7 µM
same,IC50,[2],3.31 µM
same,IC50,[3],14.3 µM
same,IC50,[4],4.89 µM
same,Activity,[5],Non-toxic
same,ΔTm,[6],2.1 °C
